The structures appear in SMILES notation.

The experiment concerns the target T1, SIRT1 (Homo sapiens, UniProt Q96EB6).
T1 sequence (Q96EB6 1-747): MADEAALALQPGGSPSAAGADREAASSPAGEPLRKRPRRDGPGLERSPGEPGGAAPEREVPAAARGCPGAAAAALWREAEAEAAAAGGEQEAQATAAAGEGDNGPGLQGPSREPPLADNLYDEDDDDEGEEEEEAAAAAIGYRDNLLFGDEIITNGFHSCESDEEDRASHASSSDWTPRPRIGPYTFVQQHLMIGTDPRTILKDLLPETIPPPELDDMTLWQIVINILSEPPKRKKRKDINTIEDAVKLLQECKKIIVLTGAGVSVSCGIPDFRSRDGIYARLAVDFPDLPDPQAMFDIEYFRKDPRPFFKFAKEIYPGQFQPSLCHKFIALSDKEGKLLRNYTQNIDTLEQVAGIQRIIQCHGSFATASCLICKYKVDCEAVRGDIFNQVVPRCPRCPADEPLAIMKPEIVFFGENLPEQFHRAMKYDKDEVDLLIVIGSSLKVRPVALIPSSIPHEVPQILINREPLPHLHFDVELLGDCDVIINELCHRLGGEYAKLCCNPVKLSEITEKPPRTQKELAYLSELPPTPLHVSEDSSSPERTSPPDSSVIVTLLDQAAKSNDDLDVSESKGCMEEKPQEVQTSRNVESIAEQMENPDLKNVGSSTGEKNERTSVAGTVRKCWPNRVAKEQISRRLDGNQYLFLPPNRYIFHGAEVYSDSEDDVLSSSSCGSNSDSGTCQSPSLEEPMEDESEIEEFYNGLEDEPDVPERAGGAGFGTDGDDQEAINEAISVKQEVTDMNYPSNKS
The experiment can be described thus: Mass spectrometry based SIRT1 deacetylation assay (activation). Format: biochemical. The note with it: 10 nM SIRT1, 0.5 μM peptide substrate, 120 μM βNAD+, 25 min at 25° C. In outline: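 Activation reported as EC1.5, the compound concentration producing 150% of DMSO-control deacetylation, plus maximum fold activation. Readout is mass-spectrometric ratio of deacetylated to acetylated p53-based peptide (0.5 μM) after 25 min, 25 °C, with 120 μM βNAD+ and 10 nM His-tagged human SIRT1, pH 8.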
Take `O=C(Nc1cccc(OCC(O)CO)c1)c1cccc2ccc(-c3cccc(C(F)(F)F)c3)nc12` (centres unmarked) [Compound 151]: the “% Fold Act. (percent maximum fold activation)” value is listed as “A (Fold activation >200%)” and the “EC1.5 (concentration of test compound that results in 150% activation of SIRT1)” value was “A (EC1.5<1.0 uM)”.

For the molecule `O=C(Nc1cccc2ccc(-c3cccc(OC(F)(F)F)c3)nc12)c1ccccc1F` [Compound 20], the “EC1.5 (concentration of test compound that results in 150% activation of SIRT1)” value is given as “C (EC1.5>25 uM)”.

In the case of `O=C(Nc1ccnc(N2CCOCC2)c1)c1cccc2ccc(-c3cccc(C(F)(F)F)c3)nc12` [Compound 321], the “% Fold Act. (percent maximum fold activation)” value was “A (Fold activation >200%)” and the “EC1.5 (concentration of test compound that results in 150% activation of SIRT1)” value is recorded as “A (EC1.5<1.0 uM)”. For `O=C(Nc1cccc2ccc(-c3cc(F)cc(C(F)(F)F)c3)nc12)c1cnccn1` [Compound 156], the “EC1.5 (concentration of test compound that results in 150% activation of SIRT1)” value was “C (EC1.5>25 uM)”. For the molecule `Cc1ncccc1-c1ccc2cccc(NC(=O)c3cscn3)c2n1` [Compound 196], the “% Fold Act. (percent maximum fold activation)” value was “A (Fold activation >200%)” and the “EC1.5 (concentration of test compound that results in 150% activation of SIRT1)” value is “A (EC1.5<1.0 uM)”. On the same counts, the results for `Cc1cc(NC(=O)c2cccc3ccc(-c4cccc(N5CCOCC5)c4)nc23)sn1` [Compound 253] are “A (Fold activation >200%)” and “A (EC1.5<1.0 uM)”. Take `O=C(Nc1cccnc1)c1cccc2cnc(-c3cccnc3)nc12` [Compound 297]: the “EC1.5 (concentration of test compound that results in 150% activation of SIRT1)” value is listed as “C (EC1.5>25 uM)”.

As to `O=C(Nc1cccc2ccc(-c3cccc(CN4CCNCC4)c3)nc12)c1cscn1` [Compound 121], the “% Fold Act. (percent maximum fold activation)” value was “A (Fold activation >200%)” and the “EC1.5 (concentration of test compound that results in 150% activation of SIRT1)” value is recorded as “A (EC1.5<1.0 uM)”.

For `O=C(Nc1cccc(CN2CCCC2)c1)c1cccc2ccc(-c3cccc(C(F)F)c3)nc12` [Compound 316], the “% Fold Act. (percent maximum fold activation)” value was “A (Fold activation >200%)” and the “EC1.5 (concentration of test compound that results in 150% activation of SIRT1)” value was “A (EC1.5<1.0 uM)”.

On to `O=C(Nc1cccc(OC2CCNC2)c1)c1cccc2ccc(-c3cccc(C(F)(F)F)c3)nc12` (centres unmarked) [Compound 257], for which the “% Fold Act. (percent maximum fold activation)” value is listed as “A (Fold activation >200%)” and the “EC1.5 (concentration of test compound that results in 150% activation of SIRT1)” value was “A (EC1.5<1.0 uM)”. Take `O=C(Nc1cccc2ccc(-c3ccc(F)c(C(F)(F)F)c3)nc12)c1cnccn1` [Compound 157]: the “EC1.5 (concentration of test compound that results in 150% activation of SIRT1)” value is reported as “C (EC1.5>25 uM)”. Take `c1cncc(CNc2cccc3ccc(-c4cccnc4)nc23)c1` [Compound 145]: the “EC1.5 (concentration of test compound that results in 150% activation of SIRT1)” value is “C (EC1.5>25 uM)”. Regarding `O=C(Nc1cnccn1)c1cccc2ccc(-c3cccc(C(F)(F)F)c3)nc12` [Compound 16], the “% Fold Act. (percent maximum fold activation)” value is reported as “A (Fold activation >200%)” and the “EC1.5 (concentration of test compound that results in 150% activation of SIRT1)” value is on record as “A (EC1.5<1.0 uM)”. Regarding `O=C(Nc1cccc2ccc(-c3cc(F)cc(C(F)(F)F)c3)nc12)c1ccccn1` [Compound 159], the “EC1.5 (concentration of test compound that results in 150% activation of SIRT1)” value was “C (EC1.5>25 uM)”.

Turning to `O=C(Nc1cccc2ccc(-c3cccc(N4CCOCC4)c3)nc12)c1cscn1` [Compound 200], the “% Fold Act. (percent maximum fold activation)” value is “A (Fold activation >200%)” and the “EC1.5 (concentration of test compound that results in 150% activation of SIRT1)” value was “A (EC1.5<1.0 uM)”. In the case of `O=C(Nc1cccc2ccc(-c3ccccc3)nc12)C1CCNCC1` [Compound 43], the “EC1.5 (concentration of test compound that results in 150% activation of SIRT1)” value is reported as “C (EC1.5>25 uM)”. Consider `O=C(Nc1ccc(Cl)nc1)c1cccc2ccc(-c3cccc(C(F)(F)F)c3)nc12` [Compound 58], for which the “% Fold Act. (percent maximum fold activation)” value was “B (Fold Activation <200%)” and the “EC1.5 (concentration of test compound that results in 150% activation of SIRT1)” value was “A (EC1.5<1.0 uM)”. For `FC(F)(F)Oc1cccc(-c2ccc3cccc(NCc4cccnc4)c3n2)c1` [Compound 139], the “EC1.5 (concentration of test compound that results in 150% activation of SIRT1)” value was “C (EC1.5>25 uM)”. Consider `O=C(Nc1cccnc1)Nc1cccc2ccc(-c3cccc(OC(F)(F)F)c3)nc12` [Compound 47], for which the “% Fold Act. (percent maximum fold activation)” value is recorded as “A (Fold activation >200%)” and the “EC1.5 (concentration of test compound that results in 150% activation of SIRT1)” value is given as “A (EC1.5<1.0 uM)”. On the same counts, the results for `Cc1ccc(-c2ccc3cccc(NC(=O)c4cscn4)c3n2)cc1F` [Compound 213] are “B (Fold Activation <200%)” and “A (EC1.5<1.0 uM)”. For the molecule `CN(C)c1cccc(C(=O)Nc2cccc3ccc(-c4cccc(C(F)(F)F)c4)nc23)c1` [Compound 215], the “% Fold Act. (percent maximum fold activation)” value is on record as “B (Fold Activation <200%)” and the “EC1.5 (concentration of test compound that results in 150% activation of SIRT1)” value is given as “A (EC1.5<1.0 uM)”. On the same counts, the results for `Cc1cc(NC(=O)c2cccc3ccc(-c4cccc(C(F)(F)F)c4)nc23)sn1` [Compound 59] are “A (Fold activation >200%)” and “A (EC1.5<1.0 uM)”.

For `O=C(Nc1cc[nH]n1)c1cccc2ccc(-c3cccc(C(F)(F)F)c3)nc12` [Compound 34], the “% Fold Act. (percent maximum fold activation)” value is on record as “A (Fold activation >200%)” and the “EC1.5 (concentration of test compound that results in 150% activation of SIRT1)” value was “B (EC1.5 1-25 uM)”.

With `Cc1nnc(NC(=O)c2cccc3ccc(-c4cccc(C(F)(F)F)c4)nc23)s1` [Compound 275], the “% Fold Act. (percent maximum fold activation)” value is listed as “B (Fold Activation <200%)” and the “EC1.5 (concentration of test compound that results in 150% activation of SIRT1)” value is given as “A (EC1.5<1.0 uM)”. In the same order, the values of `O=C(Nc1cccnc1)c1cccc2ccc(-c3ccnc(C(F)F)c3)nc12` [Compound 305] are “A (Fold activation >200%)” and “A (EC1.5<1.0 uM)”. For `O=C(NC1CN2CCC1CC2)c1cccc2ccc(-c3cccc(C(F)(F)F)c3)nc12` (centres unmarked) [Compound 88], the “EC1.5 (concentration of test compound that results in 150% activation of SIRT1)” value was “C (EC1.5>25 uM)”. Same read-out and setting: the result for `FC(F)(F)c1ccccc1-c1ccc2cccc(NCc3cccnc3)c2n1` [Compound 162] reads “C (EC1.5>25 uM)”. In the case of `Cc1cc(C)nc(NC(=O)c2cccc3ccc(-c4cccc(C(F)(F)F)c4)nc23)c1` [Compound 53], the “% Fold Act. (percent maximum fold activation)” value was “A (Fold activation >200%)” and the “EC1.5 (concentration of test compound that results in 150% activation of SIRT1)” value is on record as “A (EC1.5<1.0 uM)”. On the same counts, the results for `O=C(Nc1ncnc2ccc(-c3cccc(C(F)(F)F)c3)nc12)c1ccccn1` [Compound 310] are “A (Fold activation >200%)” and “A (EC1.5<1.0 uM)”.

As for `O=C(Nc1nc2ccccc2s1)c1cccc2ccc(-c3cccc(C(F)(F)F)c3)nc12` [Compound 55], the “% Fold Act. (percent maximum fold activation)” value is reported as “A (Fold activation >200%)” and the “EC1.5 (concentration of test compound that results in 150% activation of SIRT1)” value is reported as “A (EC1.5<1.0 uM)”. Regarding `O=C(Nc1cccc(CN2CCOCC2)n1)c1cccc2ccc(-c3cccc(C(F)F)c3)nc12` [Compound 287], the “% Fold Act. (percent maximum fold activation)” value is recorded as “A (Fold activation >200%)” and the “EC1.5 (concentration of test compound that results in 150% activation of SIRT1)” value is reported as “A (EC1.5<1.0 uM)”. As to `O=C(Nc1cccc2ccc(-c3cc(F)cc(C(F)(F)F)c3)nc12)c1ccccc1` [Compound 153], the “EC1.5 (concentration of test compound that results in 150% activation of SIRT1)” value was “C (EC1.5>25 uM)”.

Source of the values: patent publication US8685970B2, “Quinolines and related analogs as sirtuin modulators” (GlaxoSmithKline, LLC, priority 2008, dated 2014).
